Data: paper PMC8552601, “Entamoeba Chitinase is Required for Mature Round Cyst Formation” (Microbiology Spectrum, 2021)

Key:
Assay type in all cases: biochemical
[1] = biological target: T1, Entamoeba invadens chitinase 1 (rEiCht1) (Entamoeba invadens, UniProt A0A0A1U6V8); test: fluorogenic 4MU-(GlcNAc)[…] hydrolysis assay with purified recombinant enzyme
T1 construct: gene EIN_404540

[2] = biological target: T2, Entamoeba invadens chitinase 4 (rEiCht4) (Entamoeba invadens, UniProt A0A0A1TXF4); test: as above
T2 construct: gene EIN_136020
T2 sequence (A0A0A1TXF4 entry or part of it): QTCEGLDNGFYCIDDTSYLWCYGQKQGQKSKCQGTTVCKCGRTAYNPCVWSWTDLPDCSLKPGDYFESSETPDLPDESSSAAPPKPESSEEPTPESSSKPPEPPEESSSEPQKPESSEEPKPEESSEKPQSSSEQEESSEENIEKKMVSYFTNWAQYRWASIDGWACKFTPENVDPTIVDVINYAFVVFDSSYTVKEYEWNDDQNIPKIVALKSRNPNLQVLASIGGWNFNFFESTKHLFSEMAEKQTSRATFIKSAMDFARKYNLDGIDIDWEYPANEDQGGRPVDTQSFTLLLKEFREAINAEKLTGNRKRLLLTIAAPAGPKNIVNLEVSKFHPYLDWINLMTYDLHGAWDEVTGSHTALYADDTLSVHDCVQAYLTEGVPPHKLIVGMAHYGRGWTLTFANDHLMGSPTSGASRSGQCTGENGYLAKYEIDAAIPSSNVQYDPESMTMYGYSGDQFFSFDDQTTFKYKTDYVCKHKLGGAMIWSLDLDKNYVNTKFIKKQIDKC

[3] = biological target: T2, Entamoeba invadens chitinase 4 (rEiCht4); test: 4-MU release by purified recombinant enzyme, specific activity
[4] = biological target: T1, Entamoeba invadens chitinase 1 (rEiCht1); test: as above

T1 sequence (A0A0A1U6V8 entry or part of it): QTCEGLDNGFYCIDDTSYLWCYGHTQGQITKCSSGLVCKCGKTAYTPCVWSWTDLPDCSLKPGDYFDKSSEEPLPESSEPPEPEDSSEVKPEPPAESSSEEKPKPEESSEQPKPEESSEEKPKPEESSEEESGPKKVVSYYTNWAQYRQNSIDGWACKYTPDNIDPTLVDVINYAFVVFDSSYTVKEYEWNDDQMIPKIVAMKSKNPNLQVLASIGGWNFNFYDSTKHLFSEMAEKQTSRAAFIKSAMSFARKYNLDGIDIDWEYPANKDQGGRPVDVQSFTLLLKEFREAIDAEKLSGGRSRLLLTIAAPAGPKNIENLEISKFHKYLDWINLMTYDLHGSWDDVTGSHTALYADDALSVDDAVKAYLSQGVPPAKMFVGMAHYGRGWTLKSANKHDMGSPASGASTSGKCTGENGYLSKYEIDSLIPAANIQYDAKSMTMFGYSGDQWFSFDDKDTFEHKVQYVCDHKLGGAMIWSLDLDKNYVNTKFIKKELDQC

SMILES	IC50 [1]	IC50 [2]	4-MU release by purified recombinant enzyme, specific activity [3]	4-MU release by purified recombinant enzyme, specific activity [4]
Cc1nn(C)c(C)c1NS(=O)(=O)c1c(Cl)cc(-c2ccnc(N3CCNCC3)c2)cc1Cl [D-B-09, 2,6-dichloro-4-[2-(1-piperazinyl)-4-pyridinyl]-N-(1,3,5-trimethyl-1H-pyrazol-4-yl)-benzenesulfonamide]	800 ± 200 nM	2500 ± 1300 nM		
CC(=O)N[C@H]1[C@H](Oc2ccc3c(C)cc(=O)oc3c2)O[C@H](CO)[C@@H](O[C@@H]2O[C@H](CO)[C@@H](O[C@@H]3O[C@H](CO)[C@@H](O)[C@H](O)[C@H]3NC(C)=O)[C@H](O)[C@H]2NC(C)=O)[C@@H]1O [4-methylumbelliferyl β-D-N,N′,N′′-triacetylchitotrioside]			6.3 ± 1.1 μmol/min/mg protein	11.7 ± 5.3 μmol/min/mg protein
